Here are results for six compounds from ChEMBL document CHEMBL1145635, “Identification of long chain alkylidenemalonates as novel small molecule modulators of histone acetyltransferases” (2008).

Activity calls are given as the source filed them. The rule behind the calls is not given here.

The subject of assay [1] is U-937. Put plainly: Inhibition of recombinant CBP in human U937 cells at 50 uM. On the set-up: scale not given: the % may be the effect or the level left. It is filed as cell-based.
The test system of assay [2] is HEK-TE. Put plainly: Increase in histone H3 acetylation in human HEK-TE cells at 5 uM after 6 hrs by Western blot analysis. It is filed as functional, cell-based. (In western blotting, separated proteins are transferred to a membrane and probed.)
Assay [3] relates to U-937. The assay can be described thus: Cell cycle arrest in human U937 cells assessed as accumulation at S phase at 25 uM after 42 hrs by flow cytometry. It is filed as functional, cell-based. (In general: In flow cytometry, cells or beads pass a laser one at a time.)
Assay [4] addresses Histone acetyltransferase KAT2A (Homo sapiens) (UniProt Q92830). Put plainly: Inhibition of GCN5 in human U937 cells at 50 uM. The format is cell-based. To be noted: U-937.
In assay [5] the test system is U-937. Put plainly: Induction of apoptosis in human U937 cells at 50 uM after 42 hrs by flow cytometry. It is filed as functional.
For assay [6], the system named is HEK-TE. The assay can be described thus: Increase in histone H3 acetylation in human HEK-TE cells at 50 uM after 6 hrs by Western blot analysis. The format is functional, cell-based.
In assay [7] the test system is U-937. The assay can be described thus: Effect on non histone alpha-tubulin in human U937 cells at 50 uM after 16 hrs by Western blot analysis. It is filed as functional, cell-based.
The subject of assay [8] is U-937. Put plainly: Increase in histone H3 acetylation in human U937 cells at 50 uM after 20 hrs by Western blot analysis. It is filed as functional, cell-based.
Assay [9] deals with U-937. The assay can be described thus: Increase in histone H3 acetylation in human U937 cells at 50 uM after 16 hrs by Western blot analysis. It is filed as functional, cell-based.
The subject of assay [10] is U-937. The assay can be described thus: Induction of apoptosis in human U937 cells at 25 uM after 42 hrs by flow cytometry. It is filed as functional.
In assay [11] the test system is U-937. The assay can be described thus: Increase in histone H3 acetylation in human U937 cells at 5 uM after 20 hrs by Western blot analysis. The format is functional, cell-based.
Assay [12] concerns the target Histone acetyltransferase KAT2B (Homo sapiens) (UniProt Q92831). Put plainly: Effect on PCAF in human U937 cells assessed as increase in acetylation activity at 50 uM. The format is cell-based. To be noted: U-937.
For assay [13], the system named is U-937. The assay can be described thus: Inhibition of p300/CBP in human U937 cells at 50 uM. On the set-up: scale not given: the % may be the effect or the level left. It is filed as cell-based.

Sequence of Histone acetyltransferase KAT2B (Homo sapiens) (Q92831 whole entry, looked up): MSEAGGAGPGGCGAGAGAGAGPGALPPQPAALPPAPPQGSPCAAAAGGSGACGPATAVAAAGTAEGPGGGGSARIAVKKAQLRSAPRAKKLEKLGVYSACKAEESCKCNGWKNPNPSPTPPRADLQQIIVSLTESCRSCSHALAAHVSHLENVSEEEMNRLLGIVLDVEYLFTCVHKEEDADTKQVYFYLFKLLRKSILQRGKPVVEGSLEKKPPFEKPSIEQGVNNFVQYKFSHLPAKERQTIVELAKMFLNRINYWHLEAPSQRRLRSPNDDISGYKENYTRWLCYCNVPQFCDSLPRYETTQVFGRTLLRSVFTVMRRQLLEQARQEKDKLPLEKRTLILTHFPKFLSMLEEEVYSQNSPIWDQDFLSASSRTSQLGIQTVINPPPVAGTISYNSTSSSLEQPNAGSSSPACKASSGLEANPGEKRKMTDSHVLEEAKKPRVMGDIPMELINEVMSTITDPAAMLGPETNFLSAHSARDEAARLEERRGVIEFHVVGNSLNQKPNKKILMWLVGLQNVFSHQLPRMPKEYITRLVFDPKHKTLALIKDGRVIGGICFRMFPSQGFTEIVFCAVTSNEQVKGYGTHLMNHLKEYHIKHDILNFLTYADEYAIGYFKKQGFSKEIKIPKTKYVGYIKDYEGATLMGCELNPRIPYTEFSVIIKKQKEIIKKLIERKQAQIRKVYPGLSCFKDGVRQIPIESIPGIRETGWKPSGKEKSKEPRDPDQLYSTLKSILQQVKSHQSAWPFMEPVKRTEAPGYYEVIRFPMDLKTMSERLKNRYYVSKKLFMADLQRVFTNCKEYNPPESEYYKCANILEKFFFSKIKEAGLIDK
Sequence of Histone acetyltransferase KAT2A (Homo sapiens) (Q92830 2-837 limits assumed): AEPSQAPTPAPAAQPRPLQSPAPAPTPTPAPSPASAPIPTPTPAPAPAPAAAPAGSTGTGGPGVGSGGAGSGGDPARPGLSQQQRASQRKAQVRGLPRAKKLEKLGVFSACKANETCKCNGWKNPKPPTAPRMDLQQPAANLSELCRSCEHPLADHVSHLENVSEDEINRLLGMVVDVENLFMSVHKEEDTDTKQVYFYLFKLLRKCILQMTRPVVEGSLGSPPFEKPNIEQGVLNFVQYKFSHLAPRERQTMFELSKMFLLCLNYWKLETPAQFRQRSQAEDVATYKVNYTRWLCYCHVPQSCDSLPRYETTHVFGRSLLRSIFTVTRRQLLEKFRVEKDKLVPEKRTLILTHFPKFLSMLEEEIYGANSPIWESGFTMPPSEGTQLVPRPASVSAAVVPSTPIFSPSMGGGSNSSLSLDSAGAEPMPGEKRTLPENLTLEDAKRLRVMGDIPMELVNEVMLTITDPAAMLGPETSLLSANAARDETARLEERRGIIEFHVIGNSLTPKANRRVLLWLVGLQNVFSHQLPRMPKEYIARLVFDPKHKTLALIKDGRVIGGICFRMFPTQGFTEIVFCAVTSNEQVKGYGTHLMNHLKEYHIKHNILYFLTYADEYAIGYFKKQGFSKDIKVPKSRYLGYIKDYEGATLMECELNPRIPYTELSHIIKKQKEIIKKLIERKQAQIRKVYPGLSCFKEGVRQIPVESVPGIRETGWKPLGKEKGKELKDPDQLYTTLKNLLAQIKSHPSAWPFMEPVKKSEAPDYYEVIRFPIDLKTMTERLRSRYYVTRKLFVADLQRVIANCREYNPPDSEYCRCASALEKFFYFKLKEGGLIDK

Turning to `C=C1C(=O)O[C@H](CCC)[C@H]1C(=O)O`, the Activity in [1] was 55%.

`O=C(CCCCCCC(=O)Nc1ccccc1)NO`: the result in [2] was Active.

For the compound `CCCCCCCCCCCCCCC=C(C(=O)OCC)C(=O)OCC`, the result in [2], in assay [3], in assay [6], in assay [8], in [9] and in assay [11] was Active. Besides, in assay [12], the result was Active. Moreover, the result in assay [4] and in assay [7] was inactive. Moreover, the Activity in assay [5] came out at 94.4%; in [1], 81%; in assay [10], 23.9%; in [13] it was 74%.

In [13], `COc1cc(/C=C/C(=O)CC(=O)/C=C/c2ccc(O)c(OC)c2)ccc1O` came in with an Activity of 46%.

Turning to `C=CC/C=C\C/C=C\CCCCCCCc1cccc(O)c1C(=O)O`, in assay [1], the Activity was 62%.

Consider `CCCCCCCCCCCCCC=C(C(=O)OCC)C(=O)OCC`, for which, in [3], the outcome was Active. Further, the Activity in assay [10] was determined as 23.8%.
